Reference: patent US20240067651A1 (Biohaven Therapeutics Ltd., priority 2019, published 2024)

How the values were obtained:
[1] = Stability in Simulated Gastric Fluid (SGF); format: in vitro ADME; set-up: key: % parent compound remaining relative to 0-minute sample
In short: (§1)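 Compound at 2 μg/mL final was incubated at 37 °C with shaking in SGF with pepsin (pH 1.2) or SIF with pancreatin (pH 6.8), sampled from 0 to 60 min. After acetonitrile precipitation, LC-MS/MS gave % parent remaining vs 0 min; half-life came from ln(% remaining) vs time.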

[2] = Stability in Simulated Intestinal Fluid (SIF); format: in vitro ADME; set-up: key: % parent compound remaining relative to 0-minute sample
In short: as §1

[3] = Caco-2 Permeability Assay; format: in vitro ADME, human; details: human
In short: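 Caco-2 monolayers cultured 21 days (TEER >600 […]); test article at 10 μM in HBSS/HEPES pH 7.4 transport medium, dosed apical or basolateral, ±Pgp inhibitor. Incubated 90 min at 37 °C; both compartments quantified by LC-MS/MS. Papp (A→B, B→A), efflux ratio and % recovery calculated.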

Plasma Stability = format: in vitro ADME, human
In short: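 Compounds incubated at 1 μM in fresh human plasma for 1 hour at 37° C, then protein-precipitated with acetonitrile/formic acid containing internal standard. Remaining parent measured by LC-MS/MS in triplicate, expressed as percent of control remaining.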

[4] = % remaining at 1 h, SGF with pepsin pH 1.2, 2 μg/mL, 37° C.
[5] = % remaining at 1 h, SIF with pancreatin pH 6.8, 2 μg/mL, 37° C.
[6] = Caco-2, pH 7.4, donor 10 μM, 90 minutes, 37° C., direction not given
[7] = % remaining at 1 h, human plasma, 1 μM, 37° C.
[8] = % @ 1 h (remaining) in simulated gastric fluid
[9] = % @ 1 h (remaining) in simulated intestinal fluid
[10] = Caco-2, pH 7.4, Caco-2 monolayer
[11] = % @ 1 h (remaining) in human plasma
[12] = % remaining at 1 h in simulated gastric fluid
[13] = % remaining at 1 h in simulated intestinal fluid
[14] = % remaining at 1 h in human plasma
[15] = bare number, no % and no time given

In the case of `COC(=O)[C@H](CCCCN)NC(=O)OCn1ccc2c1c(=O)[nH]c(=S)n2CCOC(C)C.O=C(O)C(F)(F)F` [Example 110, trifluoroacetic acid methyl (2S)-6-amino-2-{[{{4-oxo-1-[2-(propan-2-yloxy)ethyl]-2-sulfanylidene-1H,2H,3H,4H,5H-pyrrolo[3,2-d]pyrimidin-5-yl}methoxy)carbonyl]amino}hexanoate], the SGF [1, 4] is reported as 81%, the SIF [2, 5] is reported as 45% and the Papp at 90 min, 10 µM [3, 6] is reported as 0.142 ×10⁻⁶ cm/s. The “human Plasma stability” value (Plasma Stability; [7]) was 62%.

Work on `CC(C)OCCn1c(SCOC(=O)N(C)C)nc(=O)c2c1ccn2COC(=O)N(C)C` [Example 165, trifluoroacetic acid [2-({[(dimethylcarbamoyl)oxy]methyl}sulfanyl)-4-oxo-1-[2-(propan-2-yloxy)ethyl]-1H,4H,5H-pyrrolo[3,2-d]pyrimidin-5-yl]methyl N,N-dimethylcarbamate] yielded an SGF [1, 8] of 84% @ 1 h, an SIF [2, 9] of 99% @ 1 h and a Papp at 90 min, 10 µM [3, 10] of 2.56 ×10⁻⁶ cm/s. The “human Plasma stability” value (Plasma Stability; [11]) was 97% @ 1 h.

With `CC(C)OCCn1c(=S)[nH]c(=O)c2c1ccn2COC(=O)CCNC(=O)[C@@H](N)C(C)C.O=C(O)C(F)(F)F` [Example 14] the SGF [1, 12] was 95% remaining, the SIF [2, 13] was 84% remaining and the Papp at 90 min, 10 µM [3, 10] was under 0.203 ×10⁻⁶ cm/s. For the same compound, the “human Plasma stability” value (Plasma Stability; [14]) was 55% remaining.

`CSCC[C@H](N)C(=O)NCCCCC(=O)OCn1ccc2c1c(=O)[nH]c(=S)n2CCOC(C)C.O=C(O)C(F)(F)F` [Example 31] gave an SGF [1, 12] of 94% remaining, an SIF [2, 13] of 85% remaining and a Papp at 90 min, 10 µM [3, 10] of 0.325 ×10⁻⁶ cm/s. The “human Plasma stability” value (Plasma Stability; [14]) was 1% remaining.

In the case of `CC(C)OCCn1c(SCOC(=O)N(C)C(C)C)nc(=O)c2[nH]ccc21.O=C(O)C(F)(F)F` [Example 166], the SGF [1, 8] is reported as 99% @ 1 h, the SIF [2, 9] is reported as 99% @ 1 h and the Papp at 90 min, 10 µM [3, 10] is reported as 7.08 ×10⁻⁶ cm/s. The “human Plasma stability” value (Plasma Stability; [11]) was 100% @ 1 h.

`Cc1ccc(OC(=O)OCn2ccc3c2c(=O)[nH]c(=S)n3CCOC(C)C)cc1` [Example 236] showed an SGF ([1]; simulated gastric fluid, at 1 h) of 53% remaining, an SIF ([2]; simulated intestinal fluid, at 1 h) of 1% remaining at and a Papp at 90 min, 10 µM [3, 10] of 0.59 ×10⁻⁶ cm/s. The “human Plasma stability” value (Plasma Stability; human plasma, at 1 h) was 1% remaining.

For `CC(C)C[C@@H](NC(=O)OC(C)(C)C)C(=O)OCn1c(=O)c2c(ccn2COC(=O)[C@@H](CC(C)C)NC(=O)OC(C)(C)C)n(CCOC(C)C)c1=S` [Example 319, [3-({[(2R)-2-{[(tert-butoxy)carbonyl]amino}-4-methylpentanoyl]oxy}methyl)-4-oxo-1-[2-(propan-2-yloxy)ethyl]-2-sulfanylidene-1H,2H,3H,4H,5H-pyrrolo[3,2-d]pyrimidin-5-yl]methyl (2R)-2-{[(tert-butoxy)carbonyl]amino}-4-methylpentanoate], the SGF ([1]; % remaining @ 1 h) was 34%@ 1 h, the SIF ([2]; % remaining @ 1 h) was 0%@ 1 h and the Papp at 90 min, 10 µM ([3]; Caco-2, pH 7.4) was 10.5 ×10⁻⁶ cm/s. For the same compound, the “human Plasma stability” value (Plasma Stability; % remaining @ 1 h) was 42%@ 1 h.

`CCCCN(C)C(=O)OCSc1nc(=O)c2[nH]ccc2n1CCOC(C)C.O=C(O)C(F)(F)F` [Example 160] gave an SGF [1, 8] of 92% @ 1 h, an SIF [2, 9] of 95% @ 1 h and a Papp at 90 min, 10 µM [3, 10] of 15.8 ×10⁻⁶ cm/s. For the same compound, the “human Plasma stability” value (Plasma Stability; [11]) was 99% @ 1 h.

Work on `CC(C)OCCn1c(=S)n(COC(=O)N(CC(F)(F)F)CC(F)(F)F)c(=O)c2c1ccn2COC(=O)N(CC(F)(F)F)CC(F)(F)F` [Example 98, [3-({[bis(2,2,2-trifluoroethyl)carbamoyl]oxy}methyl)-4-oxo-1-[2-(propan-2-yloxy)ethyl]-2-sulfanylidene-1H, 2H,3H,4H,5H-pyrrolo[3,2-d]pyrimidin-5-yl]methyl N,N-bis(2,2,2-trifluoroethyl)carbamate] yielded an SGF [1, 15] of 95, an SIF [2, 15] of 80 and a Papp at 90 min, 10 µM [3, 6] of 6.53 ×10⁻⁶ cm/s. For the same compound, the “human Plasma stability” value (Plasma Stability; [7]) was 99% remaining.

Work on `CC(C)OCCn1c(=S)n(COC(=O)OCCOCCNC(=O)OC(C)(C)C)c(=O)c2c1ccn2COC(=O)OCCOCCNC(=O)OC(C)(C)C` [Example 122] yielded an SGF [1, 12] of 85% remaining, an SIF [2, 13] of 22% remaining and a Papp at 90 min, 10 µM [3, 10] of 19.3 ×10⁻⁶ cm/s. For the same compound, the “human Plasma stability” value (Plasma Stability; [14]) was 50% remaining.

`CC(C)OCCn1c(=S)n(COC(=O)[C@H](Cc2ccccc2)NC(=O)OC(C)(C)C)c(=O)c2c1ccn2COC(=O)[C@H](Cc1ccccc1)NC(=O)OC(C)(C)C` [Example 304, [3-({[(2S)-2-{[(tert-butoxy)carbonyl]amino}-3-phenylpropanoyl]oxy}methyl)-4-oxo-1-[2-(propan-2-yloxy)ethyl]-2-sulfanylidene-1H,2H,3H,4H,5H-pyrrolo[3,2-d]pyrimidin-5-yl]methyl (2S)-2-{[(tert-butoxy)carbonyl]amino}-3-phenylpropanoate] showed an SGF ([1]; % remaining @ 1 h) of 44% @ 1 h, an SIF ([2]; % remaining @ 1 h) of 67% @ 1 h and a Papp at 90 min, 10 µM ([3]; Caco-2, pH 7.4) of 0.34 ×10⁻⁶ cm/s. The “human Plasma stability” value (Plasma Stability; % remaining @ 1 h) was 99% @ 1 h.

`CC(C)OCCn1c(=S)[nH]c(=O)c2c1ccn2C(C)OC(=O)OC1CCN(C(=O)OC(C)(C)C)CC1` (stereo not drawn) [Example 99, tert-Butyl 4-{[(1-{4-oxo-1-[2-(propan-2-yloxy)ethyl]-2-sulfanylidene-1H,2H,3H,4H,5H-pyrrolo[3,2-d]pyrimidin-5-yl}ethoxy)carbonyl]oxy}piperidine-1-carboxylate] showed an SGF [1, 4] of 0%, an SIF [2, 5] of 0% and a Papp at 90 min, 10 µM [3, 6] of 0.111 ×10⁻⁶ cm/s. The “human Plasma stability” value (Plasma Stability; [7]) was 5%.

With `CC(C)OCCn1c(=S)[nH]c(=O)c2c1ccn2COC(=O)OCCOCCNC(=O)OC(C)(C)C` [Example 120] the SGF [1, 12] was 83% remaining, the SIF [2, 13] was 64% remaining and the Papp at 90 min, 10 µM [3, 10] was 14.9 ×10⁻⁶ cm/s. The “human Plasma stability” value (Plasma Stability; [14]) was 30% remaining.

`CC(C)OCCn1c(=S)[nH]c(=O)c2c1ccn2COC(=O)CCNC(=O)[C@@H](NC(=O)OC(C)(C)C)[C@@H](C)O.O=C(O)C(F)(F)F` [Example 36] showed an SGF [1, 12] of 95% remaining, an SIF [2, 13] of 88% remaining and a Papp at 90 min, 10 µM [3, 10] of 0.835 ×10⁻⁶ cm/s. The “human Plasma stability” value (Plasma Stability; [14]) was 79% remaining.

`CC(C)OCCn1c(=S)n(COC(=O)CCCOC(=O)[C@@H](Cc2ccccc2)NC(=O)OC(C)(C)C)c(=O)c2c1ccn2COC(=O)CCCOC(=O)[C@@H](Cc1ccccc1)NC(=O)OC(C)(C)C` [Example 365, (3-{[(4-{[(2R)-2-{[(tert-butoxy)carbonyl]amino}-3-phenylpropanoyl]oxy}butanoyl)oxy]methyl}-4-oxo-1-[2-(propan-2-yloxy)ethyl]-2-sulfanylidene-1H,2H,3H,4H,5H-pyrrolo[3,2-d]pyrimidin-5-yl)methyl 4-{[(2R)-2-{[(tert-butoxy)carbonyl]amino}-3-phenylpropanoyl]oxy}butanoate] gave an SGF ([1]; simulated gastric fluid, remaining at 1 h) of 85% remaining, an SIF ([2]; simulated intestinal fluid, remaining at 1 h) of 5% remaining and a Papp at 90 min, 10 µM [3, 10] of under 0.263 ×10⁻⁶ cm/s. For the same compound, the “human Plasma stability” value (Plasma Stability; human plasma, remaining at 1 h) was 11% remaining.

For `CSCC[C@H](NC(=O)OCC1c2ccccc2-c2ccccc21)C(=O)NCCCCC(=O)OCn1ccc2c1c(=O)[nH]c(=S)n2CCOC(C)C.O=C(O)C(F)(F)F` [Example 20], the SGF [1, 12] was 80% remaining, the SIF [2, 13] was 76% remaining and the Papp at 90 min, 10 µM [3, 10] was 0.985 ×10⁻⁶ cm/s. For the same compound, the “human Plasma stability” value (Plasma Stability; [14]) was 64% remaining.

In the case of `CC(C)OCCn1c(=S)[nH]c(=O)c2c1ccn2COC(=O)CCCCOC(=O)CN.O=C(O)C(F)(F)F` [Example 330, trifluoroacetic acid {4-oxo-1-[2-(propan-2-yloxy)ethyl]-2-sulfanylidene-1H,2H,3H,4H,5H-pyrrolo[3,2-d]pyrimidin-5-yl}methyl 5-[(2-aminoacetyl)oxy]pentanoate], the SGF ([1]; % remaining @ 1 h) is reported as 84% @ 1 h, the SIF ([2]; % remaining @ 1 h) is reported as 7% @ 1 h and the Papp at 90 min, 10 µM ([3]; Caco-2, pH 7.4) is reported as 0.641 ×10⁻⁶ cm/s. For the same compound, the “human Plasma stability” value (Plasma Stability; % remaining @ 1 h) was 2% @ 1 h.

`CC(C)OCCn1c(=S)n(COC(=O)CCCCOC(=O)CN)c(=O)c2c1ccn2COC(=O)CCCCOC(=O)CN.O=C(O)C(F)(F)F.O=C(O)C(F)(F)F` [Example 332, bis (trifluoroacetic acid) {3-[{{5-[(2-aminoacetyl)oxy]pentanoyl}oxy)meth-yl]-4-oxo-1-[2-(propan-2-yloxy)ethyl]-2-sulfanylidene-1H,2H,3H,4H,5H-pyrrolo[3,2-d]pyrimidin-5-yl}methyl 5-[(2-aminoacetyl)oxy]pentanoate] showed an SGF ([1]; % remaining @ 1 h) of 91% @ 1 h, an SIF ([2]; % remaining @ 1 h) of 4% @ 1 h and a Papp at 90 min, 10 µM ([3]; Caco-2, pH 7.4) of under 0.073 ×10⁻⁶ cm/s. For the same compound, the “human Plasma stability” value (Plasma Stability; % remaining @ 1 h) was 4% @ 1 h.

With `CCN(C)C(=O)OCn1ccc2c1c(=O)nc(SCOC(=O)N(C)C(C)C)n2CCOC(C)C.O=C(O)C(F)(F)F` [Example 170] the SGF [1, 8] was 99% @ 1 h, the SIF [2, 9] was 92% @ 1 h and the Papp at 90 min, 10 µM [3, 10] was 14.1 ×10⁻⁶ cm/s. The “human Plasma stability” value (Plasma Stability; [11]) was 99% @ 1 h.

For `CC(C)OCCn1c(SCOC(=O)N(C)Cc2ccccc2)nc(=O)c2[nH]ccc21.O=C(O)C(F)(F)F` [Example 173], the SGF [1, 8] was 95% @ 1 h, the SIF [2, 9] was 99% @ 1 h and the Papp at 90 min, 10 µM [3, 10] was 20.5 ×10⁻⁶ cm/s. The “human Plasma stability” value (Plasma Stability; [11]) was 99% @ 1 h.

Work on `CC(C)OCCn1c(SCOC(=O)N(C)CC(F)(F)F)nc(=O)c2[nH]ccc21` [Example 94, ({4-oxo-1-[2-(propan-2-yloxy)ethyl]-1H,4H,5H-pyrrolo[3,2-d]pyrimidin-2-yl}sulfanyl)methyl N-methyl-N-(2,2,2-trifluoroethyl)carbamate] yielded an SGF [1, 15] of 99, an SIF [2, 15] of 95 and a Papp at 90 min, 10 µM [3, 6] of 15.1 ×10⁻⁶ cm/s. For the same compound, the “human Plasma stability” value (Plasma Stability; [7]) was 99% remaining.
